Measured values from US20130236568A1, “PHOSPHAPLATINS HAVING ANTI-ANGIOGENIC, ANTI-METASTATIC, AND PRO-APOPTOTIC PROPERTIES AND USES THEREOF” (Ohio University, priority 2011, published 2013).

Key:
caspase-9 = assay: Quantitative real-time PCR, caspase-9 expression in HUVEC; assay type: cell-based, human; conditions: HUVEC treated with pyrodach-4
Procedure: (§1) Evaluations of selected gene expressions in Human Umbilical Vein Endothelial Cells (HUVEC) and Human Ovarian Cancer Cells by quantitative reverse transcriptase polymerase chain reaction (PCR)
(§2) Quantitative real-time PCR experiments were performed to estimate the expression of a selection of targeted genes. HUVEC cells (Lonza Walkersville, Frederick, Md.) were cultured on 0.1% gelatin-coated petri dishes by following standard protocols recommended by the vendor in a humidified incubator by maintaining 5% CO2 at 37° C. […]
(§3) Both treated and untreated cancer cells were maintained in RPMI 1640 medium with 10% fetal bovine serum, 2 μmol L-glutamine, 100 units/mL penicillin-streptomycin and 0.25 units/mL insulin solution, at 37° C. with 5% CO2. […] The quantity and purity of RNA were determined by UV spectroscopy (NanoDrop 2000 Thermo Scientific, Wilmington, Del.). A minimum absorbance ratio index (ratio of the absorbance measured at 260 nm over that at 280 nm) of 1.9 was used as an acceptable purity. […] The target gene was labeled with a blue dye (FAM, absorbance: 494 nm, emission: 518 nm) while the reference gene was tagged with a green dye (VIC, absorbance: 538 nm, emission: 554 nm). […]
(§4) The threshold cycle number (Ct), the point at which the fluorescence of the qPCR reaction just exceeds the threshold fluorescence of the detection system, was determined. […]

PTEN = assay: Quantitative real-time PCR, PTEN expression in HUVEC; assay type: cell-based, human; conditions: HUVEC treated with pyrodach-4
Procedure: as §1, §2, §3, §4

[1] = tested on: yeast deletion collection; assay: Genome-wide fitness assay in yeast (pooled deletion strains); assay type: cell-based
Description: The around 6000 strains in the yeast deletion collection can be studied in a single culture by using a microarray to detect the 20 bp DNA “barcodes” or “tags” contained in each strain. Barcode intensities are compared across time-points or across conditions to analyze the relative fitness of each strain. This development of the pooled fitness assay has greatly facilitated the functional annotation of the yeast genome by making genome-wide gene-deletion studies faster and easier, and has led to the development of high throughput methods for studying drug action in yeast. Pooled screens can be used for identifying gene functions, measuring the functional relatedness of gene pairs in order to group genes into pathways, identifying drug targets, and determining a drug's mechanism of action. This process involves five main steps: preparing aliquots of pooled cells, pooled growth, isolation of genomic DNA and PCR amplification of the barcodes, array hybridization (or next generation sequencing), and data analysis.
The pooled fitness assay involves five main steps (FIG. 3). First, the deletion collection is grown on solid media in arrayed format and the resulting cells are pooled and frozen to make cell aliquots that will be used for starting growth experiments. Cells are then grown in the desired conditions, typically for 5 to 20 generations. The barcodes from the resulting cell samples are prepared for hybridization by isolation of the genomic DNA and PCR amplification of the barcodes. The barcodes are amplified in two reactions to prevent crosstalk between the uptag and downtag primers. The resulting PCR products are then hybridized to tag arrays with one array needed per cell sample. Data is then analyzed to determine differences in strain representation between pairs of samples.
To analyze the genome wide effects of pyrodach-2 and -4, we screened 2 collections of strains, 1200 essential genes as heterozygote deletion mutants (reducing functional gene dose from 2 to 1) and 4800 non-essential genes as complete deletions (reducing functional gene dose from 2 to 0). Both compounds were screened at the highest dose possible (200 μM final concentration) to increase the likelihood of finding compound-specific sensitive strains.
Fitness profiling of pooled deletion strains involves […] main steps: • 1. Strains are first pooled at approximately equal abundance. • 2. The pool is grown competitively in the condition of choice and a control condition. If a gene is sensitive to the treatment condition, the strain carrying this deletion will grow more slowly and become under-represented relative to the control culture (purple strain). Resistant strains will grow faster and become over-represented (not shown). • 3. Genomic DNA is isolated from cells harvested at the end of pooled growth, and barcodes are amplified from the genomic DNA with universal primers. • 4. PCR products are then hybridized to an array that detects the tag sequences, giving tag intensities for the two samples. • 5. The treatment and control sample are then compared to determine the relative fitness of each strain. Note that only the purple strain is described as sensitive to the condition. While the red strain grows more slowly than the blue strain in the treatment, this growth difference in not of interest because it matches that seen in the control.

p53 = assay: Expression of key genes with and without p53 inhibitor (Table 3): p53; assay type: cell-based, human; conditions: positive = manifold increase, negative = decrease vs untreated cells
Procedure: Quantitative real-time PCR experiments were performed to estimate the expression of a selection of targeted genes. HUVEC cells (Lonza Walkersville, Frederick, Md.) were cultured on 0.1% gelatin-coated petri dishes by following standard protocols recommended by the vendor in a humidified incubator by maintaining 5% CO2 at 37° C. Human epithelial ovarian cancer cells (A2780) and cisplatin-resistant cells (A2780/C30) were cultured in RPMI 1640 with or without cisplatin (7 μM) and pyrodach-4 (180 μM) for 0, 3, 12 and 24 hours. […] HUVECs were treated with or without cisplatin (7 μM) or pyrodach-4 (90 or 180 μM) for various durations ranging from 1 hr. to 6 hrs.
as §3, with “CO2. RNA was isolated from both the treated and untreated cells.” for “CO2.”

A2780/C30 cells = assay: Cell death detection assay with ELISA, A2780/C30 cells; assay type: cell-based, human
Procedure: In these experiments, ovarian cancer cells were treated with pyrodach-4 in the presence and absence of inhibitors PFT-α (an inhibitor p53) and LY29400 (an inhibitor of PI3K).
The different treatment groups from left to right are: control, 7 μM cisplatin, Con+PFT-α, 180 μM D4, 180 μM D4+PFT-α, 180 μM D4+LY294002. Apoptosis was quantified using the Cell Death Detection ELISA from Roche.
A2780 and A2780/C30 cells were grown in monolayers, trypsinized and suspended in supplemented RPMI 1640 media as described in Example 5. All the treatments on the Fc/A2780 and Fc/A2780/C30 cell samples were carried out in triplicate. The ELISA was performed according to the manufacturer's instructions. Briefly, 50,000 cells were plated for each treatment and the cells were allowed to adhere for 4-6 hours. Cells were then either incubated with media alone (untreated sample) or with pyrodach-4 or cisplatin in the concentrations indicated above. DNA of the treated and untreated cells was assayed for nucleosomal DNA using the ELISA kit (purchased from Roche Diagnostics, Mannheim, Germany). The cells were lysed for 30 minutes using the lysis buffer. After centrifuging, 10% (v/v) supernanant was incubated with anti-histone-biotin and anti-DNA-peroxidase. After two hour incubation, the pellets were washed three times and incubated with the substrate solution. The absorbances were measured at 405 and 490 nm for each treatment type using SPECTRA Max M2 multichannel fluorescence plate reader (Molecular Devices, Sunnyvale, Calif.). The absorbances of the treated samples were normalized to the substrate solution.

trans-(±)-1,2-cyclohexanediamine-trans-dihydroxo(pyrophosphato) platinum(IV) [Pyrodach-4]
Over-expression of caspase-9 (caspase-9): 2-3 fold | Over-expression of PTEN (PTEN): 4-8 fold | Tolerability by the yeast cell (few sensitive strains) ([1]; highest dose possible, 200 μM final concentration): well tolerated by the cell | Functions enriched among sensitive strains ([1]; yeast deletion strains, 200 μM final concentration): 1) iron and copper transport and 2) metal-regulated transcription factors | Sensitivity of DNA damage/repair genes (NER, HRR, PRR) ([1]; yeast deletion strains, phosphaplatins at 200 μM final concentration): not a single gene involved in DNA repair or other DNA metabolic processes showed any sensitivity as a mutant | Expression of p53 (p53; Pyrodach-4 + PFT-α): 2.1 | Expression of p53 (p53; Pyrodach-4 treatment only): 1.8 | Apoptotic cell death (ELISA absorbance) (A2780/C30 cells; 7 μM cisplatin or 180 μM D4): unambiguously showed cell death | Effect of p53 and PI3K inhibitors on apoptotic cell death (ELISA absorbance) (A2780/C30 cells; 180 μM D4 with PFT-α 15 μM or LY294002 30 μM): no effects
